In the supplement of paper PMC10307832:

Experiments:
Test in all cases: relative viability (nuclei count vs DMSO), 5 days (fraction); higher = more cells survive
Olaparib + Crizotinib = compound: O=C(c1cc(Cc2n[nH]c(=O)c3ccccc23)ccc1F)N1CCN(C(=O)C2CC2)CC1 [Olaparib] + C[C@@H](Oc1cc(-c2cnn(C3CCNCC3)c2)cnc1N)c1c(Cl)ccc(F)c1Cl [Crizotinib] (partner 1 µM)
Procedure, shortened: (§1)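 Nuclei were stained with Hoechst during a one-step fixation (final 0.05% Triton X-100, 1% formaldehyde, 1 ug/ml Hoechst) carried out 5 days after dosing, then counted on 4× images. The cells, lung cancer lines in 1536-well plates, had been dosed by pin tool the day after seeding with one drug alone or a fixed anchor-drug dose plus five library-drug doses (not always all listed) in √10 steps. Relative viability is the nuclei count in treated wells divided by that in vehicle wells, and each value is the median of duplicate plates.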

Olaparib + Vorinostat = compound: O=C(c1cc(Cc2n[nH]c(=O)c3ccccc23)ccc1F)N1CCN(C(=O)C2CC2)CC1 [Olaparib] + O=C(CCCCCCC(=O)Nc1ccccc1)NO [Vorinostat] (partner 1 µM)
Procedure, shortened: as §1

Crizotinib + Dasatinib = compound: C[C@@H](Oc1cc(-c2cnn(C3CCNCC3)c2)cnc1N)c1c(Cl)ccc(F)c1Cl [Crizotinib] + Cc1nc(Nc2ncc(C(=O)Nc3c(C)cccc3Cl)s2)cc(N2CCN(CCO)CC2)n1 [Dasatinib] (partner 0.075 µM)
Procedure, shortened: as §1

Olaparib + AZD7762 = compound: O=C(c1cc(Cc2n[nH]c(=O)c3ccccc23)ccc1F)N1CCN(C(=O)C2CC2)CC1 [Olaparib] + NC(=O)Nc1cc(-c2cccc(F)c2)sc1C(=O)N[C@H]1CCCNC1 [AZD7762] (partner 0.2 µM)
Procedure, shortened: as §1

Cell Line | relative viability (Olaparib + Crizotinib; first compound 0.08 µM) | relative viability (Olaparib + Crizotinib; first compound 0.253 µM) | relative viability (Olaparib + Crizotinib; first compound 2.53 µM) | relative viability (Olaparib + Crizotinib; first compound 8 µM) | relative viability (Olaparib + Vorinostat; first compound 0.08 µM) | relative viability (Olaparib + Vorinostat; first compound 0.253 µM) | relative viability (Olaparib + Vorinostat; first compound 2.53 µM) | relative viability (Olaparib + Vorinostat; first compound 8 µM) | relative viability (Crizotinib + Dasatinib; first compound 0.01 µM) | relative viability (Crizotinib + Dasatinib; first compound 0.03162 µM) | relative viability (Crizotinib + Dasatinib; first compound 0.1 µM) | relative viability (Crizotinib + Dasatinib; first compound 0.3162 µM) | relative viability (Crizotinib + Dasatinib; first compound 1 µM) | relative viability (Olaparib + AZD7762; first compound 0.08 µM) | relative viability (Olaparib + AZD7762; first compound 0.253 µM) | relative viability (Olaparib + AZD7762; first compound 2.53 µM) | relative viability (Olaparib + AZD7762; first compound 8 µM)
A549 | 0.884 | 0.654 | 0.777 | 0.358 |  |  |  |  |  |  |  |  |  |  |  |  | 
COR-L23 | 0.852 | 0.58 | 0.515 | 0.274 | 0.508 | 0.43 | 0.228 | 0.239 | 0.508 | 0.424 | 0.519 | 0.437 | 0.533 |  |  |  | 
COR-L 105 | 0.866 | 0.668 | 0.621 | 0.522 | 0.782 | 0.717 | 0.781 | 0.79 | 0.36 | 0.328 | 0.324 | 0.303 | 0.257 |  |  |  | 
Calu-6 | 1.08 | 0.662 | 0.74 | 0.573 |  |  |  |  |  |  |  |  |  |  |  |  | 
EBC-1 | 0.206 | 0.178 | 0.203 | 0.186 |  |  |  |  |  |  |  |  |  |  |  |  | 
HCC-44 | 0.914 | 0.729 | 0.841 | 0.825 | 1.12 | 1.06 | 1.22 | 1.16 |  |  |  |  |  | 1.01 | 1 | 1.03 | 1.07
IA-LM | 1.14 | 0.877 | 0.583 | 0.54 | 1.15 | 0.921 | 0.9 | 0.817 |  |  |  |  |  |  |  |  | 
NCI-H520 | 0.739 | 0.695 | 0.781 | 0.477 | 0.822 | 0.684 | 0.554 | 0.341 | 0.19 | 0.192 | 0.2 | 0.271 | 0.155 |  |  |  | 
NCI-H522 |  |  |  |  | 1.04 | 0.812 | 0.797 | 0.758 | 0.945 |  | 0.875 | 0.938 | 0.944 | 0.974 | 0.896 | 0.809 | 0.705
NCI-H661 | 1.06 | 0.969 | 0.944 | 0.849 | 0.885 | 0.715 | 0.692 | 0.551 | 0.811 |  | 0.899 | 0.809 | 0.98 |  |  |  | 
NCI-H1299 | 1.06 | 0.903 | 0.986 | 0.95 |  |  |  |  |  |  |  |  |  |  |  |  | 
NCI-H1395 |  |  |  |  | 0.775 | 0.501 | 0.516 | 0.419 | 0.388 | 0.376 | 0.409 | 0.391 | 0.358 | 0.429 | 0.334 | 0.384 | 0.359
NCI-H1563 | 0.867 | 0.813 | 0.896 | 0.826 |  |  |  |  | 0.462 | 0.443 | 0.453 | 0.444 | 0.461 |  |  |  | 
NCI-H1623 |  |  |  |  |  |  |  |  | 0.455 | 0.502 | 0.499 | 0.454 | 0.505 |  |  |  | 
NCI-H1648 |  |  |  |  | 0.392 | 0.477 |  | 0.37 |  |  |  |  |  | 0.831 | 0.75 |  | 0.544
NCI-H1650 | 1.13 | 0.864 | 1.15 | 0.965 | 0.531 | 0.522 | 0.671 | 0.476 | 0.273 | 0.299 | 0.311 | 0.362 | 0.299 |  |  |  | 
NCI-H1703 | 1.07 | 0.734 | 0.903 | 0.522 |  |  |  |  |  |  |  |  |  | 0.119 | 0.193 | 0.143 | 0.141
NCI-H1792 | 1.03 | 0.82 | 0.843 | 0.794 |  |  |  |  | 0.706 | 0.829 | 0.733 |  | 0.936 | 0.774 | 0.559 | 0.496 | 0.254
NCI-H2009 | 1.19 | 0.999 | 1.06 | 1.01 | 0.836 | 0.666 | 0.674 | 0.645 | 0.265 | 0.296 | 0.253 | 0.249 | 0.275 |  |  |  | 
NCI-H2023 | 0.789 | 0.661 | 0.658 | 0.574 | 0.734 | 0.531 | 0.507 | 0.315 | 0.532 | 0.537 | 0.449 | 0.258 | 0.389 |  |  |  | 
NCI-H2228 | 0.603 | 0.437 | 0.473 | 0.362 | 0.587 | 0.541 | 0.742 | 0.449 | 0.459 | 0.566 | 0.575 | 0.26 | 0.112 |  |  |  | 
NCI-H2342 |  |  |  |  | 0.771 | 0.699 | 0.66 | 0.653 | 0.302 | 0.334 | 0.303 | 0.349 | 0.291 | 0.544 | 0.4 | 0.439 | 0.474
SK-LU-1 | 1.15 | 0.774 | 0.801 | 0.621 | 0.847 | 0.705 | 0.726 | 0.545 | 0.178 | 0.16 | 0.181 | 0.189 | 0.159 |  |  |  | 
SK-MES-1 | 0.982 | 0.89 | 0.885 | 0.668 | 1.04 | 0.985 | 1.06 | 0.914 | 0.385 | 0.373 | 0.418 | 0.312 | 0.341 |  |  |  | 
SW 900 |  |  |  |  | 0.462 | 0.446 | 0.443 | 0.515 | 0.449 | 0.518 | 0.763 | 0.597 | 0.633 | 0.652 | 0.637 | 0.584 | 0.555
SW 1573 | 0.788 | 0.768 | 0.601 | 0.57 | 1.08 | 0.693 | 0.711 | 0.489 | 0.352 | 0.389 | 0.51 | 0.449 | 0.454 |  |  |  | 
UMC-11 | 0.757 | 0.502 | 0.492 | 0.265 | 0.392 | 0.324 | 0.365 | 0.208 | 0.381 | 0.468 | 0.426 | 0.282 | 0.502 |  |  |  | 
